Reference: patent US20110028441A1, “NOVEL PHENYL-SUBSTITUTED PIPERAZINO-DIHYDROTHIENOPYRIMIDINES” (BOEHRINGER INGELHEIM INTERNATIONAL GMBH, priority 2007, published 2011)
Read-outs that look alike come from different tables or passages of the source.

Molecular target: PDE4B (Homo sapiens, UniProt Q07343)
Test: Scintillation Proximity (SPA) Assay of PDE4B enzyme inhibition
Type: biochemical
Conditions: read-out: % Inhibition PDE4B @ 1 μM
Method: The inhibitions (in %) at 1 μM of the individual Example substances are included in the following Tables of Examples and were determined as follows:
The Scintillation Proximity (SPA) Assays (GE Healthcare, No. TRKQ7090) make use of the different affinities of cyclic 3′-5′-adenosine monophosphate (cAMP, low affinity) and linear 5′-adenosine monophosphate (AMP, high affinity) for yttrium silicate scintillator beads. The cAMP specific phosphodiesterase (PDE) PDE4B cleaves the 3′-phosphoester bond of the tritium-labelled [H3]-cAMP to form the [H3]-5′-AMP. Because of its higher affinity for the scintillator beads this [H3]-AMP accumulates on the beads and causes scintillation events (flashes of light) which are measured in a Wallac Microbeta Scintillation Counter.
The test starts with one hours incubation of [H3]-cAMP with the PDE4B enzyme in assay buffer at 30° C., once with the Example substance that is to be tested (in a concentration of 1 μM) and once without the Example substance that is to be tested. After this incubation the reaction is stopped by the addition of the beads. The beads are given an opportunity to settle over the next 45 minutes, then they are measured in the Scintillation Counter. If the substance is capable of inhibiting the enzymatic activity of the PDE4B, less [H3]-AMP is formed during the incubation phase and fewer scintillation events can be measured.

[1] = test substance 1 μM, one hour incubation of [H3]-cAMP with PDE4B enzyme at 30° C.

Chain of PDE4B (Q07343 whole entry, species assumed): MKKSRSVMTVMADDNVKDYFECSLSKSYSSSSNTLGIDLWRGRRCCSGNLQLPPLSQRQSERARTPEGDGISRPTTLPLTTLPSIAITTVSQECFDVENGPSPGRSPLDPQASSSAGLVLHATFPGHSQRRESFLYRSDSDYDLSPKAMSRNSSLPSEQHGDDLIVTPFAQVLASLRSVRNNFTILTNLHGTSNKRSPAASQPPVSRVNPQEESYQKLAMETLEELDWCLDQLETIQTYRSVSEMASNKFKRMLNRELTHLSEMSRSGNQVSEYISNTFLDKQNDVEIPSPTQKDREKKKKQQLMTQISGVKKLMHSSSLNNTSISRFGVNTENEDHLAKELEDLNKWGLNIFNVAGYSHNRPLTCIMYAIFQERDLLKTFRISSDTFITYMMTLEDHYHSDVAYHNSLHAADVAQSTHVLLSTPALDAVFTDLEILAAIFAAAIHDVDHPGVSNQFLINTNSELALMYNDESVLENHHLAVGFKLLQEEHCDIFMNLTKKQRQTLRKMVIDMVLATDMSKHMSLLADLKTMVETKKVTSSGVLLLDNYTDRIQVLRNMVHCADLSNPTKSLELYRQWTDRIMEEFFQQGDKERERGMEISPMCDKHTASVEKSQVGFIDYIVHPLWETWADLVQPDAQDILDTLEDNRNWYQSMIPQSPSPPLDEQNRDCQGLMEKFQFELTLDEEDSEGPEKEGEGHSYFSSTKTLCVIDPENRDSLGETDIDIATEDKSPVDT

Compound	inhibition at 1 µM [1]	inhibition at 1 µM
Cc1cc(Cl)ccc1N1CCN(c2nc3c(c(N[C@@H](CO)C(C)C)n2)[S+]([O-])CC3)CC1 (stereo partly drawn) [Example 75, (R)-2-{2-[4-(4-CHLORO-2-METHYLPHENYL)-PIPERAZIN-1-YL]-5-OXO-6,7-DIHYDRO-5H-5λ^4-THIENO[3,2-D]PYRIMIDIN-4-YLAMINO}-3-METHYLBUTAN-1-OL]	90%	
Cc1cc(Cl)ccc1N1CCN(c2nc3c(c(NC4(CO)CC4)n2)[S+]([O-])CC3)CC1 (stereo not shown) [Example 81, (1-{2-[4-(4-CHLORO-2-METHYLPHENYL)-PIPERAZIN-1-YL]-5-OXO-6,7-DIHYDRO-5H-5λ^4-THIENO[3,2-D]PYRIMIDIN-4-YLAMINO}-CYCLOPROPYL)-METHANOL]	95%	
Cc1cc(Cl)ccc1N1CCN(c2nc3c(c(N[C@H]4CCC(=O)N(C)C4)n2)[S+]([O-])CC3)CC1 (stereo partly drawn) [Example 90, (S)-5-{2-[4-(4-CHLORO-2-METHYLPHENYL)-PIPERAZIN-1-YL]-5-OXO-6,7-DIHYDRO-5H-5λ^4-THIENO[3,2-D]PYRIMIDIN-4-YLAMINO}-1-METHYLPIPERIDIN-2-ONE]		97%
Cc1cc(Cl)ccc1N1CCN(c2nc3c(c(NC4CCOCC4)n2)[S+]([O-])CC3)CC1 (stereo not shown) [Example 98, {2-[4-(4-CHLORO-2-METHYLPHENYL)-PIPERAZIN-1-YL]-5-OXO-6,7-DIHYDRO-5H-5λ^4-THIENO[3,2-D]PYRIMIDIN-4-YL}-(TETRAHYDROPYRAN-4-YL)-AMINE]	96%	
[O-][S+]1CCc2nc(N3CCN(c4cc(Cl)cc(Cl)c4)CC3)nc(Nc3cccc(F)c3)c21 (stereo not shown) [Example 99, {2-[4-(3,5-DICHLOROPHENYL)-PIPERAZIN-1-YL]-5-OXO-6,7-DIHYDRO-5H-5λ^4-THIENO[3,2-D]PYRIMIDIN-4-YL}-(3-FLUOROPHENYL)-AMINE]	96%	
Cc1cc(C)cc(N2CCN(c3nc4c(c(Nc5cccc(F)c5)n3)[S+]([O-])CC4)CC2)c1 (stereo not shown) [Example 100, {2-[4-(3,5-DIMETHYLPHENYL)-PIPERAZIN-1-YL]-5-OXO-6,7-DIHYDRO-5H-5λ^4-THIENO[3,2-D]PYRIMIDIN-4-YL}-(3-FLUOROPHENYL)-AMINE]		97%
[O-][S+]1CCc2nc(N3CCN(c4ccc(Cl)cc4F)CC3)nc(NC3(CO)CC3)c21 (stereo not shown) [Example 105, (1-{2-[4-(4-CHLORO-2-FLUOROPHENYL)-PIPERAZIN-1-YL]-5-OXO-6,7-DIHYDRO-5H-5λ^4-THIENO[3,2-D]PYRIMIDIN-4-YLAMINO}-CYCLOPROPYL)-METHANOL]	94%	
[O-][S+]1CCc2nc(N3CCN(c4ccc(Cl)cc4F)CC3)nc(NC3CCOCC3)c21 (stereo not shown) [Example 107, {2-[4-(4-CHLORO-2-FLUOROPHENYL)-PIPERAZIN-1-YL]-5-OXO-6,7-DIHYDRO-5H-5λ^4-THIENO[3,2-D]PYRIMIDIN-4-YL}-(TETRAHYDROPYRAN-4-YL)-AMINE]	94%	
[O-][S+]1CCc2nc(N3CCN(c4ccc(Cl)cc4F)CC3)nc(Nc3cccc(F)c3)c21 (stereo not shown) [Example 109, {2-[4-(4-CHLORO-2-FLUOROPHENYL)-PIPERAZIN-1-YL]-5-OXO-6,7-DIHYDRO-5H-5λ^4-THIENO[3,2-D]PYRIMIDIN-4-YL}-(3-FLUOROPHENYL)-AMINE]	92%	
CC(C)[C@H](CO)Nc1nc(N2CCN(c3ccc(Cl)cc3F)CC2)nc2c1[S+]([O-])CC2 (stereo partly drawn) [Example 111, (R)-2-{2-[4-(4-CHLORO-2-FLUOROPHENYL)-PIPERAZIN-1-YL]-5-OXO-6,7-DIHYDRO-5H-5λ^4-THIENO[3,2-D]PYRIMIDIN-4-YLAMINO}-3-METHYLBUTAN-1-OL]	92%	
